Molecules are shown by their SMILES. Where a name gives a salt, the structure may show the parent alone.

The text below walks through data of patent US20170166561A1, “QUINUCLIDINE COMPOUNDS FOR MODULATING ALPHA7-NICOTINIC ACETYLCHOLINE RECEPTOR ACTIVITY” (Alpharmagen, LLC, priority 2014, published 2017).

The nature of one data set: Human plasma stability (Protocols 1 and 2). The data set is classed as in vitro ADME. Particulars: human, plasma, pH 7.4. The procedure:
Example B6: Human Plasma Stability
Studies were carried out in human plasma. All plasma was obtained from Bioreclamation and collected on sodium heparin. Plasma was adjusted to pH 7.4. A DMSO stock was first prepared for the test compound. An aliquot of the DMSO solution was dosed into 1 mL of plasma, which had been pre-warmed to 37° C., at a final test compound concentration of 1 μM. The vials were kept in a benchtop Thermomixer® for the duration of the experiment. Aliquots (100 μL) were taken at each time point (0, 15, 30, 60, and 120 minutes) and added to 96-well plates which had been pre-filled with 300 μL of acetonitrile. Samples were stored at 4° C. until the end of the experiment. After the final time point was sampled, the plate was mixed and then centrifuged at 3,000 rpm for 10 minutes. Aliquots of the supernatant were removed, diluted 1:1 into distilled water, and analyzed by LC-MS/MS. The peak area response ratio to internal standard (PARR) of the compound at 15, 30, 60 and 120 minutes was compared to the PARR at time 0 to determine the percent of test compound remaining at each time point. Half-lives were calculated using GraphPad software, fitting to a single-phase exponential decay equation.
Studies were carried out in plasma. Plasma was prepared under approval of IRB and IACUC on sodium heparin. The pH of plasma was monitored and used within the range of pH 7.4 to pH 8.0. DMSO stocks were prepared for the test compounds. Aliquots of the DMSO solutions were diluted to 0.05 mM by 0.05 mM Sodium phosphate buffer with 0.5% BSA. Then 10 μL of 0.05 mM solutions were dosed into 90 μL of plasma in duplicates (n=2), which had been pre-warmed to 37° C., at a final test compound concentration of 5 μM. The plates were kept in a 37° C. water bath for the duration of the experiment. At each time point (0, 5, 15, 30, 45, 60, and 120 minutes), 400 μL of acetonitrile was added into corresponding wells. After the final time point was sampled, the plates were shaken at the vibrator (IKA, MTS 2/4) for 10 min (600 rpm/min) and then centrifuged at 5594 g for 15 min (Thermo Multifuge×3R). Aliquots of the supernatant were removed, diluted 1:1 into distilled water, and analyzed by LC-MS/MS. The peak area response ratio to internal standard (PARR) of the compounds at 5, 15, 30, 45, 60, and 120 minutes was compared to the PARR at time 0 to determine the percent of test compound remaining at each time point. Half-lives were calculated using Excel software, fitting to a single-phase exponential decay equation.
`Cc1ccc2[nH]cc(C(=O)OCC34CCN(CC3)CC4)c2c1Cl` [Compound 63, quinuclidin-4-ylmethyl 4-chloro-5-methyl-1H-indole-3-carboxylate] gave a half-life at 5 μM of 7.05 h.
Still for that read-out and setting: as for `O=C(OCC12CCN(CC1)CC2)c1c[nH]c2ccc(F)c(Br)c12` [Compound 67, quinuclidin-4-ylmethyl 4-bromo-5-fluoro-1H-indole-3-carboxylate], the figure is 96.9 h.
As for `Cc1ccc2[nH]cc(C(=O)OCC34CCN(CC3)CC4)c2c1Br` [Compound 68, quinuclidin-4-ylmethyl 4-bromo-5-methyl-1H-indole-3-carboxylate], the T1/2 entry is on record as “∞”.
For `COc1c(C)ccc2[nH]cc(C(=O)OCC34CCN(CC3)CC4)c12` [Compound 75, quinuclidin-4-ylmethyl 4-methoxy-5-methyl-1H-indole-3-carboxylate], the T1/2 entry is on record as “∞”.
In turn, `COc1cc2c(C(=O)OCC34CCN(CC3)CC4)c[nH]c2cc1C#N` [Compound 76, quinuclidin-4-ylmethyl 6-cyano-5-methoxy-1H-indole-3-carboxylate] registered a half-life at 5 μM of 4.88 h.
Same read-out and setting: next, `COc1cc(C#N)cc2[nH]cc(C(=O)OCC34CCN(CC3)CC4)c12` [Compound 77, quinuclidin-4-ylmethyl 6-cyano-4-methoxy-1H-indole-3-carboxylate]: 3.87 h; `O=C(OCC12CCN(CC1)CC2)c1c[nH]c2ccc3c(c12)OCCO3` [Compound 81, quinuclidin-4-ylmethyl 2,3-dihydro-7H-[1,4]dioxino[2,3-e]indole-9-carboxylate]: 4.5 h.
`COc1cc(C)cc2[nH]cc(C(=O)OCC34CCN(CC3)CC4)c12` [Compound 85, quinuclidin-4-ylmethyl 4 methoxy-6-methyl-1H-indole-3-carboxylate] returned a half-life at 5 μM of 1.16 h.
The same measure, in the same setting: as for `COc1cc2c(C(=O)OCC34CCN(CC3)CC4)c[nH]c2cc1O` [Compound 86, quinuclidin-4-ylmethyl 6-hydroxy-5-methoxy-1H-indole-3-carboxylate], the figure is 0.954 h.
For the molecule `COc1c(OCC(F)(F)F)ccc2[nH]cc(C(=O)OCC34CCN(CC3)CC4)c12` [Compound 88, quinuclidin-4-ylmethyl 4-methoxy-5-(2,2,2-trifluoroethoxy)-1H-indole-3-carboxylate], the T1/2 result was “∞”.
`Cc1cc(OC(=O)C(C)(C)C)cc2[nH]cc(C(=O)OCC34CCN(CC3)CC4)c12` [Compound 89, quinuclidin-4-ylmethyl 4-methyl-6-(pivaloyloxy)-1H-indole-3-carboxylate]: the half-life at 5 μM amounted to 5.16 h.
The same measure, in the same setting: as for `COCCOc1ccc2[nH]cc(C(=O)OCC34CCN(CC3)CC4)c2c1C` [Compound 91, quinuclidin-4-ylmethyl 5-(2-methoxyethoxy)-4-methyl-1H-indole-3-carboxylate], the figure is 8.32 h.
With `COCCCOc1ccc2[nH]cc(C(=O)OCC34CCN(CC3)CC4)c2c1C` [Compound 92, quinuclidin-4-ylmethyl 5-(3-methoxypropoxy)-4-methyl-1H-indole-3-carboxylate], the half-life at 5 μM came to 3.13 h.
On the same count and under the same terms, as for `CC(=O)Nc1cc(C)c2c(C(=O)OCC34CCN(CC3)CC4)c[nH]c2c1` [Compound 93, quinuclidin-4-ylmethyl 6-acetamido-4-methyl-1H-indole-3-carboxylate], the figure is 10.7 h; as for `Cc1c(OCC(F)(F)F)ccc2[nH]cc(C(=O)OCC34CCN(CC3)CC4)c12` [Compound 94, quinuclidin-4-ylmethyl 4-methyl-5-(2,2,2-trifluoroethoxy)-1H-indole-3-carboxylate], 5.74 h.
As for `Cc1c(OCCO)ccc2[nH]cc(C(=O)OCC34CCN(CC3)CC4)c12` [Compound 95, quinuclidin-4-ylmethyl 5-(2-hydroxyethoxy)-4-methyl-1H-indole-3-carboxylate, 2,2,2-trifluoroacetate salt], the half-life at 5 μM worked out at 6.61 h.
`CNCCCOc1ccc2[nH]cc(C(=O)OCC34CCN(CC3)CC4)c2c1C` [Compound 96, quinuclidin-4-ylmethyl 4-methyl-5-(3-(methylamino)propoxy)-1H-indole-3-carboxylate dihydrochloride] came in with a half-life at 5 μM of 0.114 h.

The same data set, now with this note: human; Protocol 2; plasma pH 7.4 to 8.0, 5 μM, 37° C.; read-out: T1/2.
In the case of `Cl.O=C(OCC12CCN(CC1)CC2)c1c[nH]c2cc(F)cc(Cl)c12` [Compound 64, quinuclidin-4-ylmethyl 4-chloro-6-fluoro-1H-indole-3-carboxylate hydrochloride], the half-life at 5 μM worked out at 12.1 h.
In the case of `Cc1cc(Cl)c2c(C(=O)OCC34CCN(CC3)CC4)c[nH]c2c1.Cl` [Compound 65, quinuclidin-4-ylmethyl 4-chloro-6-methyl-1H-indole-3-carboxylate hydrochloride], the half-life at 5 μM was determined as 5.56 h.
Same read-out and setting: as for `Cl.O=C(OCC12CCN(CC1)CC2)c1c[nH]c2cc(Cl)cc(Cl)c12` [Compound 71, quinuclidin-4-ylmethyl 4,6-dichloro-1H-indole-3-carboxylate hydrochloride], the figure is 4.71 h.
On the same count and under the same terms, next, `Cc1cc2[nH]cc(C(=O)OCC34CCN(CC3)CC4)c2cc1F` [Compound 72, Quinuclidin-4-ylmethyl 5-fluoro-6-methyl-1H-indole-3-carboxylate hydrochloride]: 3.8 h; `Cc1cc2[nH]cc(C(=O)OCC34CCN(CC3)CC4)c2cc1C.Cl` [Compound 73, Quinuclidin-4-ylmethyl 5,6-dimethyl-1H-indole-3-carboxylate hydrochloride]: 1.57 h; `COc1cc(Cl)cc2[nH]cc(C(=O)OCC34CCN(CC3)CC4)c12.Cl` [Compound 74, quinuclidin-4-ylmethyl 6-chloro-4-methoxy-1H-indole-3-carboxylate hydrochloride]: 2.94 h.
For `Cc1cc2c(C(=O)OCC34CCN(CC3)CC4)c[nH]c2cc1C#N` [Compound 84, quinuclidin-4-ylmethyl 6-cyano-5-methyl-1H-indole-3-carboxylate], the half-life at 5 μM was determined as 3.49 h.
On the same count and under the same terms, next, `Cl.O=C(OCC12CCN(CC1)CC2)c1c[nH]c2cc(C(F)(F)F)ccc12` [Compound 90, quinuclidin-4-ylmethyl 6-(trifluoromethyl)-1H-indole-3-carboxylate]: 3.05 h.
